Earlier results as cited in patent US8349821B2, “Stanol composition and the use thereof” (Raisio Nutrition Ltd., priority 1996, dated 2013).

How the values were obtained:
[1] = tested on: male subjects; details: for Absorption rate, on average: intestinal perfusion technique, ten male subjects
[2] = tested on: healthy humans; details: in vivo

| SMILES | Dietary campesterol absorbed ([1]; in vivo) | Absorption rate, on average [1] | Absorbability (in words) [2] | Amount that can be absorbed [2] |
| --- | --- | --- | --- | --- |
| CC(C)[C@H](C)CC[C@@H](C)[C@H]1CC[C@H]2[C@@H]3CC=C4C[C@@H](O)CC[C@]4(C)[C@H]3CC[C@]12C [campesterol] | up to 10% | 9.6% | – | – |
| CC[C@H](CC[C@@H](C)[C@H]1CC[C@H]2[C@@H]3CC[C@H]4C[C@@H](O)CC[C@]4(C)[C@H]3CC[C@]12C)C(C)C [sitostanol] | – | – | practically unabsorbable | – |
| CC[C@H](CC[C@@H](C)[C@H]1CC[C@H]2[C@@H]3CC=C4C[C@@H](O)CC[C@]4(C)[C@H]3CC[C@]12C)C(C)C [sitosterol] | – | 4.2% | – | < 5% |
| CC[C@H](/C=C/[C@@H](C)[C@H]1CC[C@H]2[C@@H]3CC=C4C[C@@H](O)CC[C@]4(C)[C@H]3CC[C@]12C)C(C)C [stigmasterol] | – | 4.8% | – | – |
